The test system of data set [1] is Human dermal adult fibroblast cells. The experiment in a line: Cell Viability Determination (resazurin). The note with it: human dermal adult fibroblasts, compound 200 micromolar, 24 hours, normalized to untreated vehicle control, n=3. The data set is classed as cell-based. The protocol: Cell Viability Determination
Each compound was individually dissolved in DMSO and then in Dulbecco's minimum essential cell culture medium (DMEM, Gibco, Life Technologies) containing 10% fetal bovine serum (Corning Life Sciences, Tewksbury, MA) and 1× antibiotic/antimycotic solution. The final DMSO concentration in a 200 micromolar compound concentration was 0.5%.
Human dermal adult fibroblast cells (ATCC, Manassas, VA) were seeded (7,500 cells/wells in a 96-well tissue culture polystyrene plate) in 100 microliters of DMEM cell culture medium containing 10% fetal bovine serum and 1× antibiotic/antimycotic solution. After approximately 18-24 hours of incubation in a humidified environment at 37° C. with 5% CO2, the wells were individually treated with one of the compounds in cell culture medium at a compound concentration of 200 micromolar or with 0.5% DMSO in cell culture medium as the vehicle (untreated) control. The cells were then incubated for 24 hours in a humidified environment at 37° C. with 5% CO2. Cell viability was determined using resazurin according to the procedure described by O'Brien, J. et al., European Journal of Biochemistry, 2000, 267(17): 5421-5426. Cell viability was normalized to the vehicle (untreated) cell control. In Table 14, the mean percent cell viability (n=3) is reported for the compounds of Examples 1, 2, 4, 5 and for 1-[(4-amino-1H-imidazo[4,5-c]quinoline-1-yl)methyl] cyclopentanol (the Comparative Example compound).
On the technique in general: Alamar Blue is a resazurin reagent that responds to reducing activity.

Data set [2] relates to Human peripheral blood mononuclear cells (PBMC). The experiment in a line: Cytokine Induction in Human Cells. The data set is classed as cell-based. The conditions noted are these: 21-24 hours culture, lowest concentration inducing at least 2× negative control; for MEC to Induce Cytokine IFN-alpha: IFN-alpha by ELISA; for MEC to Induce Cytokine IFN-gamma: IFN-gamma by multiplex bead assay; for MEC to Induce Cytokine TNF-alpha: TNF-alpha by multiplex bead assay. The protocol: Cytokine Induction in Human Cells
Whole blood was obtained from healthy human donors and collected by venipuncture into vacutainer tubes or syringes containing EDTA. Human peripheral blood mononuclear cells (PBMC) were purified from the whole blood by density gradient centrifugation. Histopaque 1077 (15 mL, Sigma, St. Louis, MO) was transferred to 6×50 mL sterile polypropylene conical tubes. The Histopaque was overlayed with 15-25 mL of blood diluted 1:2 in Hank's Balanced Salts Solution (HBSS) (Gibco, Life Technologies, Grand Island, NY). The tubes were then centrifuged at 1370 rpm for 30 minutes at 20° C., with no brake (400×g, GH 3.8A Rotor).
The interface (buffy coat) containing the PBMC was collected and placed in a new sterile 50 mL conical polypropylene centrifuge tube. The PBMC were mixed with an equal volume of HBSS (about 20 mL from the interface and about 20 mL of HBSS), and then centrifuged at 1090 rpm, 10 minutes, 20° C., with brake (270×g, GH 3.8A Rotor). After completing centrifugation, the cells were resuspended in 2-3 mL ACK Red blood cell lysis buffer (ammonium chloride potassium solution, Gibco, Life Technologies) and incubated for 2-5 minutes at 20° C. Next, HBSS (40 mL) was added to the cells, and the sample was centrifuged at 270×g for 10 minutes at 20° C. The supernatant was decanted, and the cell pellet was resuspended in 5 mL AIM V Medium (Gibco, Life Technologies). Cell aggregates and debris were removed by filtering the cell solution through a BD Falcon 70 micron nylon cell strainer (BD Biosciences, San Jose, CA).
The number of viable cells was determined by counting with a Miltenyi FACS instrument (Miltenyi Biotec Inc., San Diego, CA) or by using a hemacytometer. For determining cell viability with a hemacytometer, the cells were diluted 1/10 in 0.4% trypan blue and HBSS (specifically, 50 microliter of trypan blue+40 microliter of HBSS+10 microliter of cell solution were added to a microfuge tube and mixed). Ten microliters of the diluted cells were then applied to the hemacytometer, and the number of viable PBMC were determined by microscopy.
The PBMC sample was then resuspended in 96-well plates at a concentration of 8×10^5 cells/well in 0.1 mL of AIM-V medium. Each compound was solubilized in DMSO to create a 3 mM stock solution. The stock solution was then further diluted with AIM-V medium to prepare the serial dilutions. The diluted compound (100 microliters) was then transferred to the PBMCs to achieve a testing set with final compound concentrations of 30, 10, 3.3, 1.1, 0.37, 0.12, 0.04, 0.01 micromolar or a testing set with final compound concentrations of 100, 33.3, 11.1, 3.7, 1.2, and 0.4 micromolar. The plates also had both positive and negative controls. The negative control wells contained only AIM-V medium with no example compound. The positive control wells contained a control set of imiquimod serially diluted to concentrations of 30, 10, 3.3, 1.1, 0.37, 0.12, 0.04, 0.01 micromolar or a control set of imiquimod serially diluted to concentrations of 100, 33.3, 11.1, 3.7, 1.2, and 0.4 micromolar. The concentrations used in the control set were selected to match the concentrations used in the testing set. The plates were then cultured at 37° C./5% CO2 for 21-24 hours. Cell-free supernatants were harvested by centrifuging the 96-well plates at 2100 rpm, 23° C. for 10 minutes. Approximately 160 microliters of the supernatant was then stored in a NUNC 96-well plate, covered with the compression cap and stored at −80° C. until the cytokine analysis was done.
IFN-alpha cytokine levels (picograms/mL) were measured by ELISA (human IFN-alpha, pan specific, Mabtech, Cincinnati, OH). IFN-gamma and TNF-alpha levels (picograms/mL) were measured by multiplex bead assay (magnetic beads, R & D Systems Minneapolis, MN) according to the manufacturer's instructions. […]
Background: ELISA stands for enzyme-linked immunosorbent assay.

With `Nc1nc2ccccc2c2c1ncn2CC1(O)CCCC1` [Comparative Example, 1-[(4-amino-1H-imidazo[4,5-c]quinoline-1-yl)methyl]cyclopentanol, reference compound], the “Mean Percent Cell Viability” value in data set [1] turned out to be 2.1%. Further, in data set [2], the “MEC to Induce Cytokine IFN-alpha” value came out at 10 µM, the “MEC to Induce Cytokine IFN-gamma” value was found to be 10 µM and the “MEC to Induce Cytokine TNF-alpha” value worked out at 10 µM.
As for `C[C@@H](n1cnc2c(N)nc3ccccc3c21)C1(O)CCCC1` [Example 1, 1-[(1R)-1-(4-aminoimidazo[4,5-c]quinolin-1-yl)ethyl]cyclopentanol], in data set [1], the “Mean Percent Cell Viability” value was 80%. In data set [2], the “MEC to Induce Cytokine IFN-alpha” value came out at 3.3 µM, the “MEC to Induce Cytokine IFN-gamma” value is 3.3 µM and the “MEC to Induce Cytokine TNF-alpha” value was 3.3 µM.
With `C[C@H](n1cnc2c(N)nc3ccccc3c21)C1(O)CCCC1` [Example 2, 1-[(1S)-1-(4-aminoimidazo[4,5-c]quinolin-1-yl)ethyl]cyclopentanol], in data set [1], the “Mean Percent Cell Viability” value is 81%. In data set [2], the “MEC to Induce Cytokine IFN-alpha” value is greater than 30 µM, the “MEC to Induce Cytokine IFN-gamma” value is greater than 30 µM and the “MEC to Induce Cytokine TNF-alpha” value was greater than 30 µM.
Take `C[C@@H](n1cnc2c(N)nc3ccccc3c21)C1(O)CC=CC1` [Example 3, 1-[(1R)-1-(4-aminoimidazo[4,5-c]quinolin-1-yl)ethyl]cyclopent-3-en-1-ol]: in data set [2], the “MEC to Induce Cytokine IFN-alpha” value amounted to 3.3 µM, the “MEC to Induce Cytokine IFN-gamma” value turned out to be 3.3 µM and the “MEC to Induce Cytokine TNF-alpha” value came out at 3.3 µM.
On to `CC[C@@H](n1cnc2c(N)nc3ccccc3c21)C1(O)CCCC1` [Example 4, 1-[(1R)-1-(4-aminoimidazo[4,5-c]quinolin-1-yl)propyl]cyclopentanol], for which the “Mean Percent Cell Viability” value in data set [1] was 86%. In data set [2], the “MEC to Induce Cytokine IFN-alpha” value was 1.1 µM, the “MEC to Induce Cytokine IFN-gamma” value turned out to be 1.1 µM and the “MEC to Induce Cytokine TNF-alpha” value was 0.37 µM.
Turning to `CC[C@H](n1cnc2c(N)nc3ccccc3c21)C1(O)CCCC1` [Example 5, 1-[(1S)-1-(4-aminoimidazo[4,5-c]quinolin-1-yl)propyl]cyclopentanol], the “Mean Percent Cell Viability” value in data set [1] is on record as 78%. Also, in data set [2], the “MEC to Induce Cytokine IFN-alpha” value was greater than 30 µM, the “MEC to Induce Cytokine IFN-gamma” value is greater than 30 µM and the “MEC to Induce Cytokine TNF-alpha” value was greater than 30 µM.
For the compound `CC[C@@H](n1cnc2c(N)nc3ccccc3c21)C1(O)CCCCC1` [Example 6, 1-[(1R)-1-(4-aminoimidazo[4,5-c]quinolin-1-yl)propyl]cyclohexanol], in data set [2], the “MEC to Induce Cytokine IFN-alpha” value stood at 1.2 µM, the “MEC to Induce Cytokine IFN-gamma” value worked out at 1.2 µM and the “MEC to Induce Cytokine TNF-alpha” value was 1.2 µM.

The record behind these values is patent publication US11884662B2, “N-1 branched cycloalkyl substituted imidazo[4,5-c]quinoline compounds, compositions, and methods” (3M INNOVATIVE PROPERTIES COMPANY, priority 2018, dated 2024).
